According to PMC6325233, “A Novel Actin Binding Drug with In Vivo Efficacy” (Antimicrobial Agents and Chemotherapy, 2018):
In brackets after ≈: the same amount, converted by molar mass. Like-named read-outs stand apart in the source and are kept apart here.

Experiments:
[1] = at doses required for efficacious effect; cited from earlier work
Protocol: Natural products with in vitro antifungal properties that target the actin cytoskeleton were previously reported ([51]). […] Occidiofungin, on the other hand, is well tolerated at 5 mg/kg or 20 mg/kg when administered intravenously or subcutaneously, respectively ([22], [25]). This dose is much higher than the MIC of occidiofungin against several fungal pathogens. ...

[2] = biological target: rabbit skeletal muscle filamentous actin (F-actin) (rabbit) (UniProt P68135); assay: co-sedimentation; F-actin 200 nM; occidiofungin 25 to 25,600 nM or phalloidin 25 to 800 nM; 5 mM Tris-HCl pH 8.0, 0.2 mM ATP, 2 mM MgCl2; 30 min at room temperature; 100,000 rpm, 4°C, 20 min; free and bound ligand quantified by mass spectrometry; Langmuir isotherm; macroscopic Kd
[3] = biological target: rabbit skeletal muscle filamentous actin (F-actin) (rabbit) (UniProt P68135); assay: co-sedimentation
[4] = tested on: Trichophyton mentagrophytes 10207; assay: MIC susceptibility testing (itraconazole-resistant strain); format: cell-based; settings: Trichophyton mentagrophytes, 10207, CLSI M38-A2
Protocol: (§1) Occidiofungin was purified from a liquid culture of Burkholderia contaminans MS14 as previously described ([21]). MIC susceptibility testing was performed according to the CLSI M27-A3 and M38-A2 standards for the susceptibility testing of yeasts and filamentous fungi, respectively. S. cerevisiae deletion mutants were obtained from the commercially available BY4741 deletion library (Thermo Scientific).

[5] = tested on: Trichophyton rubrum 11199; assay: MIC susceptibility testing (terbinafine-resistant strain); format: cell-based; settings: Trichophyton rubrum, 11199, CLSI M38-A2
Protocol: as §1

Candida albicans 28200 = assay: MIC susceptibility testing; format: cell-based; settings: Candida albicans, 28200; CLSI M27-A3; read-out: Fluconazole MIC
Protocol: as §1

Candida glabrata 28271 = assay: MIC susceptibility testing; format: cell-based; settings: Nakaseomyces glabratus, 28271, read-out: Fluconazole MIC
Protocol: as §1

Candida krusei 28570 = assay: MIC susceptibility testing; format: cell-based; settings: Pichia kudriavzevii, 28570; CLSI M27-A3; read-out: Fluconazole MIC
Protocol: as §1

[6] = tested on: Candida parapsilosis 28364; assay: MIC susceptibility testing; format: cell-based; settings: Lodderomyces parapsilosis, 28364; CLSI M27-A3; read-out: Fluconazole MIC
Protocol: as §1

Candida tropicalis 28272 = assay: MIC susceptibility testing; format: cell-based; settings: Candida tropicalis, 28272; CLSI M27-A3; read-out: Fluconazole MIC
Protocol: as §1

Candida tropicalis 28478 = assay: MIC susceptibility testing; format: cell-based; settings: Candida tropicalis, 28478; CLSI M27-A3; read-out: Fluconazole MIC
Protocol: as §1

[7] = tested on: Trichophyton mentagrophytes 28556; assay: MIC susceptibility testing; format: cell-based; settings: Trichophyton mentagrophytes, 28556, CLSI M38-A2
Protocol: as §1

[8] = tested on: Trichophyton mentagrophytes 28641; assay: MIC susceptibility testing; format: cell-based; settings: Trichophyton mentagrophytes, 28641, CLSI M38-A2
Protocol: as §1

[9] = tested on: Trichophyton rubrum 28658; assay: MIC susceptibility testing; format: cell-based; settings: Trichophyton rubrum, 28658, CLSI M38-A2
Protocol: as §1

[10] = tested on: Trichophyton rubrum 28659; assay: MIC susceptibility testing; format: cell-based; settings: Trichophyton rubrum, 28659, CLSI M38-A2
Protocol: as §1

Candida albicans 28102 = assay: MIC susceptibility testing; format: cell-based; settings: Candida albicans, 28102; CLSI M27-A3; read-out: Fluconazole MIC
Protocol: as §1

Candida glabrata 25742 = assay: MIC susceptibility testing; format: cell-based; settings: Nakaseomyces glabratus, 25742; CLSI M27-A3; read-out: Fluconazole MIC
Protocol: as §1

Candida krusei 9541 = assay: MIC susceptibility testing; format: cell-based; settings: Pichia kudriavzevii, 9541; CLSI M27-A3; read-out: Fluconazole MIC
Protocol: as §1

[11] = tested on: Candida parapsilosis 28174; assay: MIC susceptibility testing; format: cell-based; settings: Lodderomyces parapsilosis, 28174; CLSI M27-A3; read-out: Fluconazole MIC
Protocol: as §1

Candida tropicalis 9624 = assay: MIC susceptibility testing; format: cell-based; settings: Candida tropicalis, 9624; CLSI M27-A3; read-out: Fluconazole MIC
Protocol: as §1

[12] = tested on: Cryptococcus neoformans 27708; assay: MIC susceptibility testing; format: cell-based; settings: Cryptococcus neoformans, 27708; CLSI M27-A3; read-out: Fluconazole MIC
Protocol: as §1

[13] = tested on: Cryptococcus neoformans 28446; assay: MIC susceptibility testing; format: cell-based; settings: Cryptococcus neoformans, 28446; CLSI M27-A3; read-out: Fluconazole MIC
Protocol: as §1

Candida albicans 23512 = assay: MIC susceptibility testing (fluconazole-resistant strain); format: cell-based; settings: Candida albicans, 23512; CLSI M27-A3
Protocol: as §1

Candida glabrata 27243 = assay: as above; format: cell-based; settings: Nakaseomyces glabratus, 27243; CLSI M27-A3
Protocol: as §1

Candida krusei 28415 = assay: as above; format: cell-based; settings: Pichia kudriavzevii, 28415; CLSI M27-A3
Protocol: as §1

[14] = tested on: Candida parapsilosis 2006; assay: MIC susceptibility testing (caspofungin-resistant strain); format: cell-based; settings: Lodderomyces parapsilosis, 2006; CLSI M27-A3; read-out: Fluconazole MIC
Protocol: as §1

[15] = tested on: Cryptococcus neoformans 19526; assay: as above; format: cell-based; settings: Cryptococcus neoformans, 19526; CLSI M27-A3; read-out: Fluconazole MIC
Protocol: as §1

[16] = tested on: Aspergillus fumigatus 28436; assay: MIC susceptibility testing; format: cell-based; settings: Aspergillus fumigatus, 28436; CLSI M38-A2; read-out: Voriconazole MIC
Protocol: as §1

Fusarium solani 18749 = assay: MIC susceptibility testing; format: cell-based; settings: Fusarium solani, 18749; CLSI M38-A2; read-out: Voriconazole MIC
Protocol: as §1

[17] = tested on: Mucor circinelloides 19445; assay: MIC susceptibility testing; format: cell-based; settings: Mucor circinelloides, 19445; CLSI M38-A2; read-out: Voriconazole MIC
Protocol: as §1

Aspergillus flavus 28445 = assay: MIC susceptibility testing; format: cell-based; settings: Aspergillus flavus, 28445; CLSI M38-A2; read-out: Voriconazole MIC
Protocol: as §1

Aspergillus flavus 28455 = assay: MIC susceptibility testing; format: cell-based; settings: Aspergillus flavus, 28455; CLSI M38-A2; read-out: Voriconazole MIC
Protocol: as §1

Aspergillus flavus 28517 = assay: MIC susceptibility testing; format: cell-based; settings: Aspergillus flavus, 28517; CLSI M38-A2; read-out: Voriconazole MIC
Protocol: as §1

[18] = tested on: Aspergillus fumigatus 28434; assay: MIC susceptibility testing; format: cell-based; settings: Aspergillus fumigatus, 28434; CLSI M38-A2; read-out: Voriconazole MIC
Protocol: as §1

[19] = tested on: Aspergillus fumigatus 28435; assay: MIC susceptibility testing; format: cell-based; settings: Aspergillus fumigatus, 28435; CLSI M38-A2; read-out: Voriconazole MIC
Protocol: as §1

Fusarium oxysporum 27718 = assay: MIC susceptibility testing; format: cell-based; settings: Fusarium oxysporum, 27718; CLSI M38-A2; read-out: Voriconazole MIC
Protocol: as §1

Fusarium solani 28386 = assay: MIC susceptibility testing; format: cell-based; settings: Fusarium solani, 28386; CLSI M38-A2; read-out: Voriconazole MIC
Protocol: as §1

Mucor fragilis 27782 = assay: MIC susceptibility testing; format: cell-based; settings: Mucor fragilis, 27782; CLSI M38-A2; read-out: Voriconazole MIC
Protocol: as §1

Mucor racemosus 27784 = assay: MIC susceptibility testing; format: cell-based; settings: Mucor racemosus, 27784; CLSI M38-A2; read-out: Voriconazole MIC
Protocol: as §1

[20] = tested on: Rhizopus microsporus 27785; assay: MIC susceptibility testing; format: cell-based; settings: Rhizopus microsporus, 27785; CLSI M38-A2; read-out: Voriconazole MIC
Protocol: as §1

[21] = tested on: Rhizopus microsporus 28506; assay: MIC susceptibility testing; format: cell-based; settings: Rhizopus microsporus, 28506; CLSI M38-A2; read-out: Voriconazole MIC
Protocol: as §1

Rhizopus oryzae 28403 = assay: MIC susceptibility testing; format: cell-based; settings: Rhizopus arrhizus, 28403; CLSI M38-A2; read-out: Voriconazole MIC
Protocol: as §1

[22] = tested on: Candida albicans strain ATCC 66027; settings: cited from earlier work
Protocol: Therefore, additional studies related to the perturbation of actin-based functions were performed to confirm that actin was the biological target of occidiofungin. As a dimorphic fungus, C. albicans can grow as a yeast or hypha, and the ability to switch between these forms is linked to the pathogenicity of the organism ([29]). Several reports have established that actin cables play an important role in the switch between yeast and hyphal forms ([30], [31]). The impact of ...

Compound: COC(CC1OC(=O)CC(O)C/C=C/C(=O)C(C)C(OC)c2coc(n2)-c2coc(n2)-c2coc(n2)/C=C/CCC1C)C(C)CCC(=O)C(C)C(C/C=C/N(C)C=O)OC (centres unmarked) [halichondramide]
- toxicity in animals [1]: limited by their toxicity in animals

Compound: jasplakinolide
- toxicity in animals [1]: limited by their toxicity in animals

Compound: Phalloidin (peptide)
- Kd [2]: 8 nM
- stoichiometry N (phalloidin per actin monomer) [2]: 0.6

Compound: Occidiofungin (peptide)
- Kd [3]: 1000 nM
- stoichiometry N (occidiofungin per actin monomer) [3]: 24

Compound: OC(Cn1cncn1)(Cn1cncn1)c1ccc(F)cc1F [Fluconazole, fluconazole, reference compound]
- MIC ([4]; read-out: Fluconazole MIC): > 16 µg/mL
- MIC ([5]; read-out: Fluconazole MIC): 0.25 µg/mL (≈ 0.816 µM)
- MIC (Candida albicans 28200): 8 µg/mL (≈ 26.1 µM)
- MIC (Candida glabrata 28271): > 64 µg/mL
- MIC (Candida krusei 28570): 16 µg/mL (≈ 52.2 µM)
- MIC [6]: 0.25 µg/mL (≈ 0.816 µM)
- MIC (Candida tropicalis 28272): 0.125 µg/mL (≈ 0.408 µM)
- MIC (Candida tropicalis 28478): 0.125 µg/mL (≈ 0.408 µM)
- MIC ([7]; read-out: Fluconazole MIC): > 16 µg/mL
- MIC ([8]; read-out: Fluconazole MIC): 16 µg/mL (≈ 52.2 µM)
- MIC ([9]; read-out: Fluconazole MIC): 2 µg/mL (≈ 6.53 µM)
- MIC ([10]; read-out: Fluconazole MIC): 2 µg/mL (≈ 6.53 µM)
- MIC (Candida albicans 28102): 0.125 µg/mL (≈ 0.408 µM)
- MIC (Candida glabrata 25742): 4 µg/mL (≈ 13.1 µM)
- MIC (Candida krusei 9541): 16 µg/mL (≈ 52.2 µM)
- MIC [11]: 0.25 µg/mL (≈ 0.816 µM)
- MIC (Candida tropicalis 9624): 0.25 µg/mL (≈ 0.816 µM)
- MIC [12]: 2 µg/mL (≈ 6.53 µM)
- MIC [13]: 4 µg/mL (≈ 13.1 µM)
- MIC (Candida albicans 23512): 32 µg/mL (≈ 104 µM)
- MIC (Candida glabrata 27243): 64 µg/mL (≈ 209 µM)
- MIC (Candida krusei 28415): 64 µg/mL (≈ 209 µM)
- MIC [14]: 0.125 µg/mL (≈ 0.408 µM)
- MIC [15]: 4 µg/mL (≈ 13.1 µM)

Compound: C[C@@H](c1ncncc1F)[C@](O)(Cn1cncn1)c1ccc(F)cc1F [Voriconazole, voriconazole, reference compound]
- MIC ([4]; read-out: Voriconazole MIC): 0.25 µg/mL (≈ 0.716 µM)
- MIC ([5]; read-out: Voriconazole MIC): 0.008 µg/mL (≈ 0.0229 µM)
- MIC [16]: 1 µg/mL (≈ 2.86 µM)
- MIC (Fusarium solani 18749): > 16 µg/mL
- MIC [17]: > 16 µg/mL
- MIC ([7]; read-out: Voriconazole MIC): 0.06 µg/mL (≈ 0.172 µM)
- MIC ([8]; read-out: Voriconazole MIC): 0.06 µg/mL (≈ 0.172 µM)
- MIC ([9]; read-out: Voriconazole MIC): 0.03 µg/mL (≈ 0.0859 µM)
- MIC ([10]; read-out: Voriconazole MIC): 0.03 µg/mL (≈ 0.0859 µM)
- MIC (Aspergillus flavus 28445): 2 µg/mL (≈ 5.73 µM)
- MIC (Aspergillus flavus 28455): 2 µg/mL (≈ 5.73 µM)
- MIC (Aspergillus flavus 28517): 1 µg/mL (≈ 2.86 µM)
- MIC [18]: 1 µg/mL (≈ 2.86 µM)
- MIC [19]: 1 µg/mL (≈ 2.86 µM)
- MIC (Fusarium oxysporum 27718): > 16 µg/mL
- MIC (Fusarium solani 28386): > 16 µg/mL
- MIC (Mucor fragilis 27782): > 16 µg/mL
- MIC (Mucor racemosus 27784): > 16 µg/mL
- MIC [20]: > 16 µg/mL
- MIC [21]: 16 µg/mL (≈ 45.8 µM)
- MIC (Rhizopus oryzae 28403): > 16 µg/mL

Compound: C=C1[C@@H](C)[C@H]2[C@H](Cc3ccccc3)NC(=O)[C@]23OC(=O)/C=C/C(=O)CCC[C@@H](C)C/C=C/[C@H]3[C@@H]1O [cytochalasin A]
- effect on hyphal formation [22]: prevent hyphal formation

Compound: C/C1=C/C(=O)O[C@@H]2C[C@@H](CC[C@H](C)/C=C\C=C\CC1)O[C@@](O)([C@@H]1CSC(=O)N1)C2 [latrunculin A]
- effect on hyphal formation [22]: prevent hyphal formation
